Columns and labels:
[1] = system: Puccinia recondita; assay: Controlling effect on wheat brown rust (leaf rust) by foliage spray treatment (Tests 1 and 2); format: in vivo; details: foliage spray 0.8 mg/L, 1,000 L/ha, 11 days after inoculation
Method: The wheat plants had been grown in square plastic pots (6 cm×6 cm). The suspensions were left to dry, and inoculated with spores of Puccinia recondita (adjusted at 200 spores per field of vision, Gramin S was added at 60 ppm) by spraying, and kept at 25° C. in a high humidity environment for 48 hours. After that, the plants were kept in a greenhouse. 11 days after the inoculation, the lesion degree of the wheat leaf rust was examined in accordance with the criteria shown in Table 4, and the protective values were calculated by the following equation. Protective value (%)=(1−Average lesion degree in sprayed plot/Average lesion degree in unsprayed plot)×100
The wheat plants had been grown in square plastic pots (6 cm×6 cm). The leaves were air-dried, and inoculated with spores of Puccinia recondita (adjusted at 200 spores per field of vision, Gramin S was added at 60 ppm) by spraying, and kept at 25° C. in a high humidity environment for 48 hours. After that, the plants were kept in a greenhouse. 11 days after the inoculation, the lesion degree of the wheat leaf rust was examined, and the protective values were calculated as were in Experiment Example 2.

[2] = system: wheat; assay: Necrosis (adverse effects) of seed treatment on wheat seeds; format: in vivo; details: 20 days after sowing
Method: A pot experiment was performed to evaluate necrosis (adverse effects) caused by the seed treatment. Compound (1-1a) and Compound (1-2a), each which was dissolved in DMSO to make up such a concentration that the seeds would be treated in treatment amount of 2 g to 200 g ai/100 kg seeds, were each applied to wheat seeds in a vial, and thereafter 8 wheat seeds were sowed in an 80-cm^2 pot. The pot was kept in a greenhouse with water supplied to its bottom. 20 days after the sowing, an extent of necrosis (percentage of necrotic surface area) of wheat was evaluated. A necrosis index was derived from the percentage of the necrotic surface area, based on the criteria shown by Table 13. In Table 13, a smaller necrosis index indicates a lesser adverse effect of necrosis caused by the treatment with the use of a plant disease controlling agent.

[3] = system: Phaeosphaeria nodorum; assay: Test 1 for antifungal effect, plate medium: P.n; format: cell-based; details: PDA plate medium
Method: (§1) Compound (1-1a) or Compound (1-2a) was dissolved in dimethyl sulfoxide, and the resulting solution was added to a PDA medium (potato dextrose-agar medium) at about 60° C. The medium and the solution were mixed thoroughly in a conical flask, poured into a petri dish, and allowed to solidify. In this way, a plate medium containing Compound (1-1a) or Compound (1-2a) at a certain concentration was prepared.
(§2) Meanwhile, test microorganisms cultured on a plate medium in advance were cut out with the use of a cork borer 4 mm in diameter, and were inoculated onto the compound-containing plate medium. After the inoculation, the microorganisms were cultured at their optimum growth temperatures (for example, refer to LIST OF CULTURES 1996 microorganisms 10th edition, Institute for Fermentation (foundation)) for 1 day to 7 days, and their growth was determined by measuring the diameter of their flora. The extent of growth of the microorganisms on the compound-containing plate medium was compared with that of microorganisms on a plate medium where no compound was added, and mycelial growth inhibition rate was calculated by the following equation: R=100(dc−dt)/dc where R is mycelial growth inhibition rate (%), dc is the flora diameter in untreated plate, and dt is the flora diameter in plate treated with the compound.
(§3) A larger antifungal index indicates a better antifungal effect.

[4] = system: Gaeumannomyces graminis; assay: Test 1 for antifungal effect, plate medium: G.g; format: cell-based; details: PDA plate medium
Method: as §1, §2, §3

[5] = system: Gibberella fujikuroi; assay: Test 1 for antifungal effect, plate medium: G.f; format: cell-based; details: PDA plate medium
Method: as §1, §2, §3

[6] = system: Rhizopus oryzae; assay: Test 1 for antifungal effect, plate medium: R.o; format: cell-based; details: PDA plate medium
Method: as §1, §2, §3

[7] = system: Sclerotinia sclerotiorum; assay: Test 1 for antifungal effect, plate medium: S.s; format: cell-based; details: PDA plate medium
Method: as §1, §2, §3

[8] = system: Botrytis cinerea; assay: Test 1 for antifungal effect, plate medium: B.c; format: cell-based; details: PDA plate medium
Method: as §1, §2, §3

[9] = system: Glomerella cingurata; assay: Test 1 for antifungal effect, plate medium: G.c; format: cell-based; details: PDA plate medium
Method: as §1, §2, §3

[10] = system: Pyrenophora graminea; assay: Test 2 for antifungal effect, plate medium: P.g; format: cell-based; details: PDA plate medium
Method: (§4) Compound (1-1b) or Compound (1-2b) was dissolved in dimethyl sulfoxide, and the resulting solution was added to a PDA medium (potato dextrose-agar medium) at about 60° C. The medium and the solution were mixed thoroughly in a conical flask, poured into a petri dish, and allowed to solidify. In this way, a plate medium containing Compound (1-1b) or Compound (1-2b) at a certain concentration was prepared.
(§5) Meanwhile, test microorganisms cultured on a plate medium in advance were cut out with the use of a cork borer 4 mm in diameter, and were inoculated onto the compound-containing plate medium. After the inoculation, the pathogens were cultured at their optimum growth temperatures (for example, refer to LIST OF CULTURES 1996 microorganisms 10th edition, Institute for Fermentation (foundation)) for 1 day to 7 days, and their growth was determined by measuring the diameter of their flora. The extent of growth of the pathogens on the compound-containing plate medium was compared with that of pathogens on a plate medium where no compound was added, and mycelial growth inhibition rate was calculated as in Experiment Example 10. Note that, in Experiment Example 11, controls used in the antifungal effect tests are Compound (1-1a) and Compound (1-2a) instead of Compound (1-1b) and Compound (1-2b), respectively.
(§6) The results were rated on a 1-to-5 scale as in Experiment Example 10.

[11] = system: Ustilago nuda; assay: Test 2 for antifungal effect, plate medium: U.n; format: cell-based; details: PDA plate medium
Method: as §4, §5, §6

CC1(CCl)CCC(Cc2ccc(Cl)cc2)C1(O)Cn1cncn1 (single isomer, unassigned) [Compound (1-1a), (1,2-cis, 1,5-cis)-5-(4-chlorobenzyl)-2-chloromethyl-2-methyl-1-(1H-1,2,4-triazole-1-ylmethyl)cyclopentanol]
Protective value (%) [1]: 95%
Necrosis index ([2]; treatment amount 2 g ai/100 kg seeds): 0 (Less than 1%)
Necrosis index ([2]; treatment amount 20 g ai/100 kg seeds): 0 (Less than 1%)
Necrosis index ([2]; treatment amount 200 g ai/100 kg seeds): 0 (Less than 1%)
Antifungal index (mycelial growth inhibition rate) ([3]; 0.16 mg/L): 2 (Less than 70% but not less than 60%)
Antifungal index (mycelial growth inhibition rate) ([3]; 0.31 mg/L): 3 (Less than 80% but not less than 70%)
Antifungal index (mycelial growth inhibition rate) ([3]; 0.63 mg/L): 5 (90% or greater)
Antifungal index (mycelial growth inhibition rate) ([3]; 1.25 mg/L): 5 (90% or greater)
Antifungal index (mycelial growth inhibition rate) ([3]; 2.50 mg/L): 5 (90% or greater)
Antifungal index (mycelial growth inhibition rate) ([4]; 0.16 mg/L): 3 (Less than 80% but not less than 70%)
Antifungal index (mycelial growth inhibition rate) ([4]; 0.31 mg/L): 5 (90% or greater)
Antifungal index (mycelial growth inhibition rate) ([4]; 0.63 mg/L): 5 (90% or greater)
Antifungal index (mycelial growth inhibition rate) ([4]; 1.25 mg/L): 5 (90% or greater)
Antifungal index (mycelial growth inhibition rate) ([4]; 2.50 mg/L): 5 (90% or greater)
Antifungal index (mycelial growth inhibition rate) ([5]; 0.16 mg/L): 5 (90% or greater)
Antifungal index (mycelial growth inhibition rate) ([5]; 0.31 mg/L): 5 (90% or greater)
Antifungal index (mycelial growth inhibition rate) ([5]; 0.63 mg/L): 5 (90% or greater)
Antifungal index (mycelial growth inhibition rate) ([5]; 1.25 mg/L): 5 (90% or greater)
Antifungal index (mycelial growth inhibition rate) ([5]; 2.50 mg/L): 5 (90% or greater)
Antifungal index (mycelial growth inhibition rate) ([6]; 0.16 mg/L): 3 (Less than 80% but not less than 70%)
Antifungal index (mycelial growth inhibition rate) ([6]; 0.31 mg/L): 4 (Less than 90% but not less than 80%)
Antifungal index (mycelial growth inhibition rate) ([6]; 0.63 mg/L): 5 (90% or greater)
Antifungal index (mycelial growth inhibition rate) ([6]; 1.25 mg/L): 5 (90% or greater)
Antifungal index (mycelial growth inhibition rate) ([6]; 2.50 mg/L): 5 (90% or greater)
Antifungal index (mycelial growth inhibition rate) ([7]; 0.16 mg/L): 5 (90% or greater)
Antifungal index (mycelial growth inhibition rate) ([7]; 0.31 mg/L): 5 (90% or greater)
Antifungal index (mycelial growth inhibition rate) ([7]; 0.63 mg/L): 5 (90% or greater)
Antifungal index (mycelial growth inhibition rate) ([7]; 1.25 mg/L): 5 (90% or greater)
Antifungal index (mycelial growth inhibition rate) ([7]; 2.50 mg/L): 5 (90% or greater)
Antifungal index (mycelial growth inhibition rate) ([8]; 0.16 mg/L): 3 (Less than 80% but not less than 70%)
Antifungal index (mycelial growth inhibition rate) ([8]; 0.31 mg/L): 5 (90% or greater)
Antifungal index (mycelial growth inhibition rate) ([8]; 0.63 mg/L): 5 (90% or greater)
Antifungal index (mycelial growth inhibition rate) ([8]; 1.25 mg/L): 5 (90% or greater)
Antifungal index (mycelial growth inhibition rate) ([8]; 2.50 mg/L): 5 (90% or greater)
Antifungal index (mycelial growth inhibition rate) ([9]; 0.16 mg/L): 5 (90% or greater)
Antifungal index (mycelial growth inhibition rate) ([9]; 0.31 mg/L): 5 (90% or greater)
Antifungal index (mycelial growth inhibition rate) ([9]; 0.63 mg/L): 5 (90% or greater)
Antifungal index (mycelial growth inhibition rate) ([9]; 1.25 mg/L): 5 (90% or greater)
Antifungal index (mycelial growth inhibition rate) ([9]; 2.50 mg/L): 5 (90% or greater)
Antifungal index (mycelial growth inhibition rate) ([10]; 0.04 mg/L): 2 (Less than 70% but not less than 60%)
Antifungal index (mycelial growth inhibition rate) ([10]; 0.08 mg/L): 3 (Less than 80% but not less than 70%)
Antifungal index (mycelial growth inhibition rate) ([10]; 0.16 mg/L): 4 (Less than 90% but not less than 80%)
Antifungal index (mycelial growth inhibition rate) ([10]; 0.31 mg/L): 5 (90% or greater)
Antifungal index (mycelial growth inhibition rate) ([10]; 0.63 mg/L): 5 (90% or greater)
Antifungal index (mycelial growth inhibition rate) ([10]; 1.25 mg/L): 5 (90% or greater)
Antifungal index (mycelial growth inhibition rate) ([11]; 0.04 mg/L): 1 (Less than 60%)
Antifungal index (mycelial growth inhibition rate) ([11]; 0.08 mg/L): 1 (Less than 60%)
Antifungal index (mycelial growth inhibition rate) ([11]; 0.16 mg/L): 1 (Less than 60%)
Antifungal index (mycelial growth inhibition rate) ([11]; 0.31 mg/L): 2 (Less than 70% but not less than 60%)
Antifungal index (mycelial growth inhibition rate) ([11]; 0.63 mg/L): 3 (Less than 80% but not less than 70%)
Antifungal index (mycelial growth inhibition rate) ([11]; 1.25 mg/L): 4 (Less than 90% but not less than 80%)

Source: patent US9253983B2, “Triazole compound and use thereof” (KUREHA CORPORATION, priority 2011, dated 2016)
